In patent publication US7011844B2 (Alza Corporation, priority 1996, dated 2006):

How the values were obtained:
[1] = Protocol: The experiment was carried out using standard glass diffusion cells which consist of a donor compartment with a 7.5 ml capacity, and a receptor compartment with a 22 ml capacity. A circular piece of epidermis was placed in each diffusion cell (permeation area=2.27 cm^2) in a horizontal position between a lower capped receptor compartment and an upper capped donor compartment. The receptor compartment has both a venting tube (uncapped) and a sampling port (capped). The stratum corneum side of the epidermis faced the donor compartment. An O-ring was positioned between the epidermis and the donor compartment, and a clamp held the compartments together. The receptor solution, 22 ml of 0.001 M phosphoric acid solution, pH 3.2, was added to each receptor compartment. The cells were placed in a temperature controlled water bath shaker at 35° C. and allowed to come to temperature before the donor solution was added.
At each time interval, the receptor solution was removed from the test cell and replaced with an equal volume of fresh receptor solution previously equilibrated at 35° C. […] From the drug concentration and the volume of the receptor solutions, the area of permeation and the time interval, the flux of the drug through the epidermis was calculated as follows: (drug concentration×volume of receptor)/(area×time)=flux (μg/cm^2·hr).
Transdermal fluxes were obtained using human epidermis at 35° C. in standard diffusion cells using the procedure set forth in Example 1. FIG. 6 graphically depicts the results.
Transdermal fluxes were obtained using human epidermis at 35° C. in standard diffusion cells using the procedure set forth in Example 1.

[2] = administered orally as fluoxetine hydrochloride (Prozac), 10 mg or 20 mg daily doses, cited from earlier work
skin = skin irritation on transdermal administration (inventors' finding); format: in vivo
Description: According to this preferred embodiment, a pharmaceutically acceptable salt of fluoxetine is coadministered with an anti-irritant, preferably a corticosteroid such as hydrocortisone.
Other salts which provide the necessary flux and irritation levels can be determined in accordance with the principles of the teachings of this invention.

| Compound | effect of methyl laurate by itself on fluoxetine flux ([1]; 10% fluoxetine base in oil/petrolatum with 0-10% methyl laurate, FIG. 6) | increase of fluoxetine flux by addition of GML ([1]; 10% fluoxetine base in oil/petrolatum with 2.5-10% GML, FIG. 5) | effect of the combination of methyl laurate and GML on fluoxetine flux ([1]; 10% fluoxetine base in oil/petrolatum with 5% methyl laurate and 0-10% GML, FIG. 7, compared with GML or methyl laurate individually) | elimination half-life, averaging ([2]; average) | elimination half-life [2] | skin irritation when administered transdermally (skin; in vivo) | skin irritation when administered transdermally (skin; transdermal administration, base or salt form as labelled) |
| --- | --- | --- | --- | --- | --- | --- | --- |
| CNCCC(Oc1ccc(C(F)(F)F)cc1)c1ccccc1 (racemic) [fluoxetine, (±)-N-methyl-γ-[4-(trifluoromethyl)-phenoxy] benzenepropanamine] | did not significantly increase | two to five fold | synergistic effect | 48 to 72 h | 24 to 220 h | moderately to severely irritating | – |
| fluoxetine acetate | – | – | – | – | – | – | reduced irritation levels |
